In patent US20140135310A1, “SULPHONAMIDE DERIVATIVES OF ALICYCLIC AMINES FOR THE TREATMENT OF CENTRAL NERVOUS SYSTEM DISEASES” (Adamed Sp. z o.o., priority 2011, published 2014):

Assays:
[1] = test system: α1 adrenergic receptors (rat cerebral cortex); assay: Radioligand binding assay, adrenergic α1 receptors; settings: test compound 1×10^−6 M
Procedure, shortened: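 Values derive from radioligand displacement, with non-specific binding defined by excess cold ligand and detection by scintillation. Hill-fit IC50s were converted to Ki via Cheng-Prusoff using Scatchard-derived Kd; percent inhibition of control specific binding also reported.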

[2] = biological target: T1, 5-HT1A receptor (rat hippocampus) (Rattus norvegicus, UniProt P19327); assay: Radioligand binding assay, serotoninergic 5-HT1A receptors; settings: binding assay result in %, Table 5a;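 also: test compound at 1 µM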
T1 construct: hippocampus; from tissue; host or cells: rat hippocampus
T1 sequence (P19327 1-422): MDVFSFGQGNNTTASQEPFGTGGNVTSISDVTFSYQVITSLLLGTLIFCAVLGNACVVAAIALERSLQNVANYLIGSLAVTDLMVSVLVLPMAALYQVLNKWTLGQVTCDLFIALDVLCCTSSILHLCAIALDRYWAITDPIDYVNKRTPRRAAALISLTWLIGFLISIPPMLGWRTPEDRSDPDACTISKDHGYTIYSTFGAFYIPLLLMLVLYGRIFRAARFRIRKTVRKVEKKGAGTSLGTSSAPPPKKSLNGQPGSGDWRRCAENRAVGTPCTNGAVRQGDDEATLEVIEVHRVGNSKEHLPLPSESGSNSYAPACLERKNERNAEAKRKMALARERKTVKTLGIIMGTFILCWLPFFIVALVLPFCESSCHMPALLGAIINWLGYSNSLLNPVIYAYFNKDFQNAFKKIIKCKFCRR

5-HT2C receptor = biological target: T2, 5-HT2C receptor (Homo sapiens, UniProt P28335); assay: Radioligand binding assay, serotoninergic 5-HT2C receptors; settings: test compound 1×10^−6 M
T2 construct: expressed in transfected cells; host or cells: HEK-293 cells
T2 sequence (P28335 33-458): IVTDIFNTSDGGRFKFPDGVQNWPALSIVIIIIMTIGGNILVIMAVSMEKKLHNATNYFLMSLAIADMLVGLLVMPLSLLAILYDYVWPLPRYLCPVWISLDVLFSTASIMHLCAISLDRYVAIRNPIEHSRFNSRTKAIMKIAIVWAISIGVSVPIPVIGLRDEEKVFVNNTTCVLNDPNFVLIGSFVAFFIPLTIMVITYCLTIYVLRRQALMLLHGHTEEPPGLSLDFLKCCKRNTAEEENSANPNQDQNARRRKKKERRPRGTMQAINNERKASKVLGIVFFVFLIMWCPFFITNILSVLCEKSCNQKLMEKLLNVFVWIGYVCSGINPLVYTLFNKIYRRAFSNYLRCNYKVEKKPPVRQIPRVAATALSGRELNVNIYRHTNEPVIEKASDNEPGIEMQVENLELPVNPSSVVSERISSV
Source text: (§1) The specific ligand binding to the receptors is defined as the difference between the total binding and the non-specific binding determined in the presence of the excess of unlabelled ligand.
(§2) The results are expressed as a percent of control specific binding ((measured specific binding/control specific binding)×100) and as a percent inhibition of control specific binding (100−((measured specific binding/control specific binding)×100)) obtained in the presence of the test compounds. The specific ligand binding to the receptors is defined as the difference between the total binding and the nonspecific binding determined in the presence of an excess of unlabelled ligand. Scintillation counting was the method of detection of ligand binding. The IC50 values (concentration causing a half-maximal inhibition of control specific binding) were determined by non-linear regression analysis of the competition curves generated with mean replicate values using Hill equation curve fitting (Y=D+[(A−D)/(1+(C/C50)nH)], where Y=specific binding, D=minimum specific binding, A=maximum specific binding, C=compound concentration, C50=IC50, and nH=slope factor). This analysis was performed using a software developed at Cerep (Hill software) and validated by comparison with data generated by the commercial software SigmaPlot® 4.0 for Windows® (© 1997 by SPSS Inc.). The inhibition constants (Ki) were calculated using the Cheng Prusoff equation (Ki=IC50/(1+(L/KD)), where L=concentration of radioligand in the assay, and KD=affinity of the radioligand for the receptor). A scatchard plot was used to determine the Kd.
Experimental conditions for tests are given in Table 4, and results of tests for representative compounds of the invention are given in Table 5a and 5b (receptors 5-HT1A, 5-HT2A, 5-HT6 and 5-HT7) and in Table 6 (receptors 5-HT2C).

5-HT6 receptor = biological target: T3, 5-HT6 receptor (Homo sapiens, UniProt P50406); assay: Radioligand binding assay, serotoninergic 5-HT6 receptors; settings: for Ki: read-out: Inhibition constants Ki, 5-HT6;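 as to 5-HT6 [%]: test compound at 1 µM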
T3 construct: purchased PerkinElmer
Procedure, shortened: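 Values are Ki from Cheng–Prusoff, taking IC50 from Hill nonlinear regression of competition curves and KD from a Scatchard plot. Specific binding was total minus binding with excess unlabelled ligand. Radioligand displacement was detected by scintillation counting, and data were also reported as percent of control specific binding.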

M3 muscarinic receptors = biological target: T4, M3 muscarinic receptors (Homo sapiens, UniProt P20309); assay: Radioligand binding assay, muscarinic M3 receptors; settings: test compound 1×10^−6 M
T4 construct: expressed in transfected cells; host or cells: CHO cells
Source text: as §1, §2
Experimental conditions for tests are given in Table 10, and results of tests for representative compounds are given in Table 11.

[3] = biological target: dopaminergic receptors D3 (Homo sapiens, UniProt P35462); assay: Radioligand binding assay, dopaminergic D3 receptors; settings: test compound 1×10^−6 M
Procedure, shortened: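 Competition radioligand binding at human D2, D3 and D4.4 receptors, detected by scintillation counting; nonspecific binding defined with excess unlabelled ligand. Results as percent inhibition of control specific binding; IC50 by Hill-equation nonlinear regression; Ki via Cheng-Prusoff, with radioligand KD from Scatchard plot.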

[4] = binding assay result in %, Table 5a

T3 sequence (P50406 whole entry): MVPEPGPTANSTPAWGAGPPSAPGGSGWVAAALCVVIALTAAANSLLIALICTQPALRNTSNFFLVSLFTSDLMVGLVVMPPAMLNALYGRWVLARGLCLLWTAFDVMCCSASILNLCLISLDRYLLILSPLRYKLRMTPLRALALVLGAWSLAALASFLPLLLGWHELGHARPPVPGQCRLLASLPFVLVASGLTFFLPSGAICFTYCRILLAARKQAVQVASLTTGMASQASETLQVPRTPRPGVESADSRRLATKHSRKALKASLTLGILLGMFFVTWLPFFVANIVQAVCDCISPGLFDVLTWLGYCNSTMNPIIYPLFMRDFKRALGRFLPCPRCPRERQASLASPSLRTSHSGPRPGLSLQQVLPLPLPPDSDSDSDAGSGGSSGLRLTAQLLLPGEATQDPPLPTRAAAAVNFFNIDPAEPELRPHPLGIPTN
Chain of dopaminergic receptors D3 (P35462 whole entry): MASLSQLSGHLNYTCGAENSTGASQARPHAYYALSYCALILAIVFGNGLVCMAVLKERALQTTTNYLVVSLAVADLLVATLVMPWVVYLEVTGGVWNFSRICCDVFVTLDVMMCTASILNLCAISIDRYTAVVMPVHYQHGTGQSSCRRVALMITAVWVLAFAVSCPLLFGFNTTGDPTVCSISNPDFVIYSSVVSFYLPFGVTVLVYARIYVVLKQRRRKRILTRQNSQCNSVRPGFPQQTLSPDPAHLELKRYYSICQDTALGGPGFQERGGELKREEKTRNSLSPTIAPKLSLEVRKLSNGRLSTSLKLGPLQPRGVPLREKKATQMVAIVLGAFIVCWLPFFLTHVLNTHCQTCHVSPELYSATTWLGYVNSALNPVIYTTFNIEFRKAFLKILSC
T4 sequence (P20309 whole entry): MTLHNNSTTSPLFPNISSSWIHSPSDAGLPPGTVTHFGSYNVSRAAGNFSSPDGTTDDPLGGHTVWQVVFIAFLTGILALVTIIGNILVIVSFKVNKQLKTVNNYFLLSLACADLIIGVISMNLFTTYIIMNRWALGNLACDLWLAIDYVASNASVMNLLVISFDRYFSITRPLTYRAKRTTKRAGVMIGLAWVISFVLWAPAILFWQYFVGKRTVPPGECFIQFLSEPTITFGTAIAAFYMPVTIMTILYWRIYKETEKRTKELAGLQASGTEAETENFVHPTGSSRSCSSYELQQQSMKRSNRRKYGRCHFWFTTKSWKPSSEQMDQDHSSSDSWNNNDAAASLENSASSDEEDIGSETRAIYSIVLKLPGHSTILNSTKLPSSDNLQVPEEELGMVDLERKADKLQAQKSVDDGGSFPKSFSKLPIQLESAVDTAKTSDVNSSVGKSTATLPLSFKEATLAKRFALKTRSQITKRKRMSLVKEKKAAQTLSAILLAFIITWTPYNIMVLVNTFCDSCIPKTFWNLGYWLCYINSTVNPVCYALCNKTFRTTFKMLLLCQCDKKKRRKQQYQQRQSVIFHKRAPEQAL

| Compound | α1 [%] [1] | inhibition at 1 µM [2] | inhibition at 1 µM (5-HT2C receptor) | inhibition at 1 µM (5-HT6 receptor; [4]) | inhibition at 1 µM (M3 muscarinic receptors) | inhibition at 1 µM [3] | Ki (5-HT6 receptor) | 5-HT1A [%] [2] | 5-HT2C [%] (5-HT2C receptor) | 5-HT6 [%] (5-HT6 receptor; [4]) | M3 [%] (M3 muscarinic receptors) | D3 [%] [3] |
| --- | --- | --- | --- | --- | --- | --- | --- | --- | --- | --- | --- | --- |
| O=S(=O)(NCC1CCN(CCCc2noc3cc(F)ccc23)C1)c1ccc(-c2ccccc2)cc1 (stereo not shown) [Compound 241, N-[[1-[3-(6-Fluoro-1,2-benzoxazol-3-yl)propyl]pyrrolidin-3-yl]methyl]-4-phenyl-benzenesulphonamide] | 62% | 39% | 66% | 68% | 19% | 87% |  |  |  |  |  |  |
| O=S(=O)(NC1CCN(CCCc2c[nH]c3ccc(F)cc23)C1)c1ccc2ccccc2c1 (stereo not shown) [Compound 80, N-[1-[3-(5-Fluoro-1H-indol-3-yl)propyl]pyrrolidin-3-yl]naphthalene-2-sulphonamide] | 50% | 98% | 86% | 96% | 2% | 100% | 15 nM |  |  |  |  |  |
| O=S(=O)(NCC1CCN(CCOc2cccc3c2OCCO3)C1)c1ccc2c(c1)CCO2 (stereo not shown) [Compound 306, N-[[1-[2-(2,3-Dihydro-1,4-benzodioxin-5-yloxy)ethyl]pyrrolidin-3-yl]-methyl]-2,3-dihydrobenzofuran-5-sulphonamide] | 90% | 99% | 36% | 45% | 12% | 26% |  |  |  |  |  |  |
| O=S(=O)(N[C@@H]1CCN(CCCc2noc3cc(F)ccc23)C1)c1ccc2cc(Cl)ccc2c1 [Compound 200, 6-Chloro-N-[(3R)-1-[3-(6-fluoro-1,2-benzoxazol-3-yl)propyl]pyrrolidin-3-yl]naphthalene-2-sulphonamide] | 85% | 50% | 77% | 99% | 3% | 94% | 10 nM |  |  |  |  |  |
| O=S(=O)(NCC1CCN(CCOc2cccc3c2OCCO3)C1)c1ccc(C(F)(F)F)cc1 (stereo not shown) [Compound 293, N-[[1-[2-(2,3-Dihydro-1,4-benzodioxin-5-yloxy)ethyl]pyrrolidin-3-yl]methyl]-4-(trifluoromethyl)benzenesulphonamide] | 77% | 100% | 50% | 47% | 10% | 60% |  |  |  |  |  |  |
| O=S(=O)(NCC1CN(CCOc2cccc3c2OCCO3)C1)c1ccc(Cl)c(Cl)c1 [Compound 183, 3,4-Dichloro-N-[[1-[2-(2,3-dihydro-1,4-benzodioxin-5-yloxy)ethyl]azetidin-3-yl]methyl]benzenesulphonamide] | 85% | 98% | 98% | 81% | 13% | 79% |  |  |  |  |  |  |
| COc1ccc2cc(S(=O)(=O)N[C@@H]3CCN(CCCc4noc5cc(F)ccc45)C3)ccc2c1 [Compound 230, N-[(3R)-1-[3-(6-Fluoro-1,2-benzoxazol-3-yl)propyl]pyrrolidin-3-yl]-6-methoxy-naphthalene-2-sulphonamide] | 83% | 77% | 91% | 96% | 15% | 99% | 15 nM |  |  |  |  |  |
| O=S(=O)(N[C@H]1CCN(CCCc2noc3cc(F)ccc23)C1)c1cc2ccccc2s1 [Compound 197, N-[(3S)-1-[3-(6-Fluoro-1,2-benzoxazol-3-yl)propyl]pyrrolidin-3-yl]benzo-thiophene-2-sulphonamide] | 93% | 56% | 84% | 97% | 26% | 83% | 16 nM |  |  |  |  |  |
| O=S(=O)(NC1CN(CCOc2cccc3[nH]ccc23)C1)c1ccc2ccccc2c1 [Compound 50, N-[1-[2-(1H-Indol-4-yloxy)ethyl]azetidin-3-yl]naphthalene-2-sulphonamide] | 88% | 101% | 54% | 43% | 2% | 104% |  |  |  |  |  |  |
| N-[1-[3-(6-Fluoro-1,2-benzoxazol-3-yl)propyl]pyrrolidin-3-yl]-1-methyl-imidazole-4-sulphonamide [Compound 217] | 40% |  |  |  |  |  |  | 54% | 67% | 98% | 6% | 84% |
| O=S(=O)(NC1CCN(CCCc2noc3cc(F)ccc23)C1)c1cc2ccccc2s1 (stereo not shown) [Compound 25, N-[1-[3-(6-Fluoro-1,2-benzoxazol-3-yl)propyl]pyrrolidin-3-yl]-benzothiophene-2-sulphonamide] | 85% | 74% | 83% | 95% | 23% | 97% |  |  |  |  |  |  |
| O=S(=O)(NC1CCN(CCCc2c[nH]c3ccc(F)cc23)C1)c1ccc(Cl)cc1 (stereo not shown) [Compound 77, 4-Chloro-N-[1-[3-(5-fluoro-1H-indol-3-yl)propyl]pyrrolidin-3-yl]-benzenesulphonamide] | 29% | 99% | 77% | 95% | 17% | 93% | 39 nM |  |  |  |  |  |
| Cc1c(S(=O)(=O)NC2CCN(CCCc3noc4cc(F)ccc34)C2)sc2ccc(F)cc12 (stereo not shown) [Compound 28, 5-Fluoro-N-[1-[3-(6-fluoro-1,2-benzoxazol-3-yl)propyl]pyrrolidin-3-yl]-3-methyl-benzothiophene-2-sulphonamide] | 70% | 61% | 72% | 96% | 13% | 96% |  |  |  |  |  |  |
| O=S(=O)(NC1CCN(CCCc2c[nH]c3ccc(F)cc23)C1)c1ccc(F)cc1 (stereo not shown) [Compound 75, 4-Fluoro-N-[1-[3-(5-fluoro-1H-indol-3-yl)propyl]pyrrolidin-3-yl]benzene-sulphonamide] | 45% | 100% | 83% | 94% | 17% | 86% | 34 nM |  |  |  |  |  |
| O=S(=O)(N[C@H]1CCN(CCCc2noc3cc(F)ccc23)C1)c1cc2ccccc2o1 [Compound 215, N-[(3S)-1-[3-(6-Fluoro-1,2-benzoxazol-3-yl)propyl]pyrrolidin-3-yl]benzo-furan-2-sulphonamide] | 89% | 52% | 74% | 93% | 39% | 85% | 21 nM |  |  |  |  |  |
